Counter-ions that a name gives are not always drawn.
Species: Rattus norvegicus
Test: Open TG-GATES - Regimen: Single
Format: toxicity, organism-based, Sprague-Dawley
Design: regimen Single, gender Male, age 6 weeks
Details: in vivo, ip, 80 mg/kg, route intraperitoneal injection, dose level Low; for APTT / Bas / Eos / Fbg / Hb / Ht / Lym / MCH / MCHC / MCV / Mono / Neu / PT / Plat / RBC / Ret / WBC: tissue Blood; for KIDNEY_L / KIDNEY_R / KIDNEY_TOTAL: tissue Kidney; for LIVER: tissue Liver; for A/G / ALP / ALT / AST / BUN / CRE / Ca / Cl / DBIL / GLC / IP / K / LDH / Na / PL / RALB / TBIL / TC / TG / TP / gamma-GTP: tissue Plasma

In the case of `CCOC(=O)/C=C\C(=O)OCC` [DIETHYL MALEATE], the TERMINAL_BW (3 h) is reported as 197.8 g, the APTT (3 h) is reported as 16.6 s and the Bas (3 h) is reported as 0%. The Eos (3 h) was 0.4%, the Fbg (3 h) was 212.4 mg/dL and the Hb (3 h) was 13.4 g/dL. For the same molecule, the Ht (3 h) was 40%, the Lym (3 h) was 73.4% and the MCH (3 h) was 22 pg. For the same molecule, the MCHC (3 h) was 33.5%, the MCV (3 h) was 65.8 fL and the Mono (3 h) was 6.6%. For the same molecule, the Neu (3 h) was 20%, the PT (3 h) was 12.3 s and the Plat (3 h) was 114.6 x10_4/uL. For the same molecule, the RBC (3 h) was 608.6 x10_4/ul, the Ret (3 h) was 9.4% and the WBC (3 h) was 97 x10_2/uL. It also gave a KIDNEY_L (3 h) of 0.8 g, a KIDNEY_R (3 h) of 0.9 g and a KIDNEY_TOTAL (3 h) of 1.7 g. It also gave an LIVER (3 h) of 9 g, an A/G (3 h) of 1.9 and an ALP (3 h) of 802.4 IU/L. It also gave an ALT (3 h) of 41.2 IU/L, an AST (3 h) of 75.2 IU/L and a BUN (3 h) of 14.8 mg/dL. The CRE (3 h) was 0.5 mg/dL, the Ca (3 h) was 11 mg/dL and the Cl (3 h) was 106.6 meq/L. For the same molecule, the DBIL (3 h) was 0.032 mg/dL, the GLC (3 h) was 194.2 mg/dL and the IP (3 h) was 10.2 mg/dL. The K (3 h) was 5.1 meq/L, the LDH (3 h) was 80.8 IU/L and the Na (3 h) was 140.4 meq/L. For the same molecule, the PL (3 h) was 150.4 mg/dL, the RALB (3 h) was 3.6 g/dL and the TBIL (3 h) was 0.4 mg/dL. For the same molecule, the TC (3 h) was 88 mg/dL, the TG (3 h) was 33 mg/dL and the TP (3 h) was 5.5 g/dL. It also gave a gamma-GTP (3 h) of 1 IU/L, a TERMINAL_BW (6 h) of 197.1 g and an APTT (6 h) of 16.8 s. The Bas (6 h) was 0%, the Eos (6 h) was 0.6% and the Fbg (6 h) was 207.2 mg/dL. For the same molecule, the Hb (6 h) was 13.1 g/dL, the Ht (6 h) was 39.2% and the Lym (6 h) was 76.2%. It also gave an MCH (6 h) of 21.9 pg, an MCHC (6 h) of 33.4% and an MCV (6 h) of 65.4 fL. For the same molecule, the Mono (6 h) was 5.2%, the Neu (6 h) was 17.8% and the PT (6 h) was 12.2 s. For the same molecule, the Plat (6 h) was 116.6 x10_4/uL, the RBC (6 h) was 599.8 x10_4/ul and the Ret (6 h) was 9.5%. For the same molecule, the WBC (6 h) was 108.8 x10_2/uL, the KIDNEY_L (6 h) was 0.9 g and the KIDNEY_R (6 h) was 0.9 g. The KIDNEY_TOTAL (6 h) was 1.7 g, the LIVER (6 h) was 8.4 g and the A/G (6 h) was 1.9. It also gave an ALP (6 h) of 753.2 IU/L, an ALT (6 h) of 36.4 IU/L and an AST (6 h) of 76.2 IU/L. The BUN (6 h) was 13 mg/dL, the CRE (6 h) was 0.5 mg/dL and the Ca (6 h) was 10.7 mg/dL. For the same molecule, the Cl (6 h) was 106.8 meq/L, the DBIL (6 h) was 0.002 mg/dL and the GLC (6 h) was 194 mg/dL. For the same molecule, the IP (6 h) was 10 mg/dL, the K (6 h) was 4.8 meq/L and the LDH (6 h) was 91 IU/L. For the same molecule, the Na (6 h) was 139.2 meq/L, the PL (6 h) was 131.4 mg/dL and the RALB (6 h) was 3.4 g/dL. For the same molecule, the TBIL (6 h) was 0.5 mg/dL, the TC (6 h) was 73.4 mg/dL and the TG (6 h) was 46 mg/dL. It also gave a TP (6 h) of 5.3 g/dL, a gamma-GTP (6 h) of 1 IU/L and a TERMINAL_BW (9 h) of 197.4 g. The APTT (9 h) was 16.7 s, the Bas (9 h) was 0% and the Eos (9 h) was 0.8%. For the same molecule, the Fbg (9 h) was 223.2 mg/dL, the Hb (9 h) was 12.9 g/dL and the Ht (9 h) was 38.5%. It also gave a Lym (9 h) of 71.4%, an MCH (9 h) of 21.7 pg and an MCHC (9 h) of 33.6%. For the same molecule, the MCV (9 h) was 64.7 fL, the Mono (9 h) was 3.8% and the Neu (9 h) was 24%. For the same molecule, the PT (9 h) was 11.7 s, the Plat (9 h) was 117.4 x10_4/uL and the RBC (9 h) was 596.2 x10_4/ul. The Ret (9 h) was 9.2%, the WBC (9 h) was 102 x10_2/uL and the KIDNEY_L (9 h) was 0.8 g. For the same molecule, the KIDNEY_R (9 h) was 0.9 g, the KIDNEY_TOTAL (9 h) was 1.7 g and the LIVER (9 h) was 8 g. It also gave an A/G (9 h) of 2.2, an ALP (9 h) of 735 IU/L and an ALT (9 h) of 35.2 IU/L. The AST (9 h) was 73.4 IU/L, the BUN (9 h) was 12.6 mg/dL and the CRE (9 h) was 0.4 mg/dL. For the same molecule, the Ca (9 h) was 10.5 mg/dL, the Cl (9 h) was 107.2 meq/L and the DBIL (9 h) was 0.026 mg/dL. The GLC (9 h) was 204.6 mg/dL, the IP (9 h) was 9.6 mg/dL and the K (9 h) was 4.7 meq/L. It also gave an LDH (9 h) of 89.4 IU/L, a Na (9 h) of 139.6 meq/L and a PL (9 h) of 137.8 mg/dL. The RALB (9 h) was 3.6 g/dL, the TBIL (9 h) was 0.3 mg/dL and the TC (9 h) was 79.4 mg/dL. The TG (9 h) was 41 mg/dL, the TP (9 h) was 5.3 g/dL and the gamma-GTP (9 h) was 1.4 IU/L. It also gave a TERMINAL_BW (24 h) of 209.5 g, an APTT (24 h) of 15.5 s and a Bas (24 h) of 0%. For the same molecule, the Eos (24 h) was 0.8%, the Fbg (24 h) was 225.8 mg/dL and the Hb (24 h) was 12.9 g/dL. It also gave a Ht (24 h) of 38.7%, a Lym (24 h) of 79.4% and an MCH (24 h) of 21.6 pg. The MCHC (24 h) was 33.4%, the MCV (24 h) was 64.7 fL and the Mono (24 h) was 4.6%. For the same molecule, the Neu (24 h) was 15.2%, the PT (24 h) was 11.8 s and the Plat (24 h) was 123.2 x10_4/uL. It also gave an RBC (24 h) of 598.4 x10_4/ul, a Ret (24 h) of 9.8% and a WBC (24 h) of 94.6 x10_2/uL. For the same molecule, the KIDNEY_L (24 h) was 0.9 g, the KIDNEY_R (24 h) was 0.9 g and the KIDNEY_TOTAL (24 h) was 1.8 g. The LIVER (24 h) was 10 g, the A/G (24 h) was 2.1 and the ALP (24 h) was 887.2 IU/L. It also gave an ALT (24 h) of 36 IU/L, an AST (24 h) of 63.6 IU/L and a BUN (24 h) of 17.4 mg/dL. It also gave a CRE (24 h) of 0.5 mg/dL, a Ca (24 h) of 11.1 mg/dL and a Cl (24 h) of 106 meq/L. It also gave a DBIL (24 h) of 0.03 mg/dL, a GLC (24 h) of 195.8 mg/dL and an IP (24 h) of 8 mg/dL. It also gave a K (24 h) of 5 meq/L, an LDH (24 h) of 94.4 IU/L and a Na (24 h) of 139.6 meq/L. For the same molecule, the PL (24 h) was 148.8 mg/dL, the RALB (24 h) was 3.7 g/dL and the TBIL (24 h) was 0.3 mg/dL. It also gave a TC (24 h) of 82.6 mg/dL, a TG (24 h) of 93 mg/dL and a TP (24 h) of 5.5 g/dL. It also gave a gamma-GTP (24 h) of 1.6 IU/L.
